Experimental data published in US20140005165A1, “SUBSTITUTED 3-AZABICYCLO[3.1.0]HEXANE DERIVATIVES USEFUL AS CCR2 ANTAGONISTS” (priority 2011, published 2014).

target: T1, human CCR2 (Homo sapiens, UniProt P41597); test: CCR2 Membrane Binding Assay (SPA radio-ligand binding, 125I-rhMCP-1); conditions: membranes from Ba/F3 cells transfected with human CCR2; 0.03 nM 125I-rhMCP-1; 4 h room temperature
T1 construct: expressed in transfected cells; host or cells: Ba/F3 cells (membrane preparation)
Method: The radio-ligand binding assay was done using scintillation proximity assay (SPA) technology. Briefly, membranes (1 μg per assay point) from Ba/F3 cells transfected with human CCR2, and wheat germ agglutinin-coated SPA beads (80 μg per point; Amersham, Arlington Heights, Ill.), were pre-incubated for 30 min at room temperature in CCR2 buffer (50 mM HEPES (pH=7.4), 10 mM MgCl2, 10 mM NaCl, 1 mM CaCL2, 0.1% BSA, 10 μg/ml Saponin). At this point pre-bound SPA bead, membrane complex was incubated at room temperature for 4 h with varying concentrations of punitive CCR2 antagonists (in 1% DMSO, final) and 0.03 nM ^125I-rhMCP-1 in CCR2Buffer (S.A. 2200 Ci/mmol, PerkinElmer Life and Analytical Science, Boston, Mass.; NEX332). Binding competition was measured using a 1450 Microbeta Trilux counter (Wallac, Gaithersburg, Md.). Binding constants (IC50 and slope) were calculated using GraphPad Prism software (GraphPad Software, Inc., La Jolla Calif.).

T1 sequence (P41597 whole entry): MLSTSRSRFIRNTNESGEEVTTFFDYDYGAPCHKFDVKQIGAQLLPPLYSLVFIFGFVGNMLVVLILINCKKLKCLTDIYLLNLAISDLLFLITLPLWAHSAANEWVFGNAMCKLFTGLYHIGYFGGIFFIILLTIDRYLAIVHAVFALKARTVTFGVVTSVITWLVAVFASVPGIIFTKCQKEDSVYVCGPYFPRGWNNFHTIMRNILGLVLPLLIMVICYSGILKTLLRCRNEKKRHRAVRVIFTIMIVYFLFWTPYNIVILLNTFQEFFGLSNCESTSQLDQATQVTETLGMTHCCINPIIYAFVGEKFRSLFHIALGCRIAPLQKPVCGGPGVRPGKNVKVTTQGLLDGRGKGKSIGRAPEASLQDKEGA

SMILES | IC50 [nM]
O=C(CNC(=O)[C@H]1[C@@H]2CN(C3CCC(O)(c4ccc5c(c4)OCO5)CC3)C[C@@H]21)Nc1cccc(C(F)(F)F)c1 (stereo partly shown) [Compound 152] | 10
O=C(CNC(=O)[C@H]1[C@@H]2CN([C@H]3CC[C@@H](c4ccc5c(c4)OCO5)CC3)C[C@@H]21)Nc1cccc(C(F)(F)F)c1 [Compound 143] | 4.1
COc1ccc(C2(O)CCC(N3C[C@@H]4[C@H](C3)[C@H]4C(=O)NCC(=O)Nc3cccc(C(F)(F)F)c3)CC2)cn1 (stereo partly shown) [Compound 147] | 4.5
Cn1cc([C@H]2CC[C@@H](N3C[C@@H]4[C@H](C3)[C@H]4C(=O)NCC(=O)Nc3cccc(C(F)(F)F)c3)CC2)cn1 [Compound 94] | 13.6

The next lines start with the values.

IC50 [nM] | SMILES
6.1 | O=C(CNC(=O)[C@H]1[C@@H]2CN([C@H]3CC[C@@H](c4ccc(F)cc4)CC3)C[C@@H]21)Nc1cccc(C(F)(F)F)c1 [Compound 119]
3.1 | O=C(CNC(=O)[C@H]1[C@@H]2CN([C@H]3CC[C@@H](c4ccc(O)cc4)CC3)C[C@@H]21)Nc1cccc(C(F)(F)F)c1 [Compound 114]
3.6 | O=C(CNC(=O)[C@H]1[C@@H]2CN([C@H]3CC[C@@H](c4ccccc4)OC3)C[C@@H]21)Nc1cccc(C(F)(F)F)c1 [Compound 89]
11 | O=C(CNC(=O)[C@H]1[C@@H]2CN([C@H]3CC[C@@H](c4ccncc4)CC3)C[C@@H]21)Nc1cccc(C(F)(F)F)c1 [Compound 83]

same assay, conditions: membranes from Ba/F3 cells transfected with human CCR2; 0.03 nM 125I-rhMCP-1; class symbols

SMILES | IC50 [nM] | IC50 (nM)
O=C(CNC(=O)[C@H]1[C@@H]2CN([C@H]3CC[C@@H](c4cncnc4)CC3)C[C@@H]21)Nc1cccc(C(F)(F)F)c1 [Compound 91] | < 50 | 
O=C(CNC(=O)[C@H]1[C@@H]2CN(C3CC(CO)C3)C[C@@H]21)Nc1cccc(C(F)(F)F)c1 (stereo partly shown) [Compound 23] | 201 to 700 | 
CC(=O)NC1CCC(N2C[C@@H]3[C@H](C2)[C@H]3C(=O)NCC(=O)Nc2cccc(C(F)(F)F)c2)CC1 (stereo partly shown) [Compound 55] | 201 to 700 | 
O=C([C@H]1[C@@H]2CN([C@H]3CC[C@@H](c4ccccc4)CC3)C[C@@H]21)N1CC(Oc2ccc(C(F)(F)F)cc2)C1 [Compound 76] |  | D (compounds with IC50 values between 701 nM and 110 nM are designated as D class compounds)
O=C(NCCc1cccc(C(F)(F)F)c1)C1[C@H]2CN(C3CCCCC3)C[C@@H]12 (stereo partly shown) [Compound 1] | 51 to 200 | 
COc1ncc([C@H]2CC[C@@H](N3C[C@@H]4[C@H](C3)[C@H]4C(=O)NCC(=O)Nc3cccc(C(F)(F)F)c3)CC2)cn1 [Compound 133] | < 50 | 
O=C(CNC(=O)[C@H]1[C@@H]2CN(C3CCC(O)(c4cncs4)CC3)C[C@@H]21)Nc1cccc(C(F)(F)F)c1 (stereo partly shown) [Compound 121] | < 50 | 
O=C(NC1Cc2ccccc2C1)[C@H]1[C@@H]2CN([C@H]3CC[C@@H](c4ccccc4)CC3)C[C@@H]21 [Compound 16] |  | D (compounds with IC50 values between 701 nM and 110 nM are designated as D class compounds)
O=C(CNC(=O)[C@H]1[C@@H]2CN([C@H]3CC[C@H](NC(=O)OCc4ccccc4)CC3)C[C@@H]21)Nc1cccc(C(F)(F)F)c1 [Compound 155] | 201 to 700 | 
CC1CCC(N2C[C@@H]3[C@H](C2)[C@H]3C(=O)NCC(=O)Nc2cccc(C(F)(F)F)c2)C1 (stereo partly shown) [Compound 19] | 201 to 700 | 
CC(C1CC1)N1C[C@@H]2[C@H](C1)[C@H]2C(=O)NCC(=O)Nc1cccc(C(F)(F)F)c1 (stereo partly shown) [Compound 12] | 201 to 700 | 
COc1ccc([C@H]2CC[C@H](N3C[C@@H]4[C@H](C3)[C@H]4C(=O)NCC(=O)Nc3cccc(C(F)(F)F)c3)CC2)cc1 [Compound 131] |  | D (compounds with IC50 values between 701 nM and 110 nM are designated as D class compounds)
COCC(C)N1C[C@@H]2[C@H](C1)[C@H]2C(=O)NCC(=O)Nc1cccc(C(F)(F)F)c1 (stereo partly shown) [Compound 15] | 201 to 700 | 
O=C(NCCc1cccc(C(F)(F)F)c1)C1[C@H]2CN(C3CCCOC3)C[C@@H]12 (stereo partly shown) [Compound 162] | 201 to 700 | 
CC(N1C[C@@H]2[C@H](C1)[C@H]2C(=O)NCC(=O)Nc1cccc(C(F)(F)F)c1)C1(C)CC1 (stereo partly shown) [Compound 20] |  | D (compounds with IC50 values between 701 nM and 110 nM are designated as D class compounds)
CCCC(C)N1C[C@@H]2[C@H](C1)[C@H]2C(=O)NCC(=O)Nc1cccc(C(F)(F)F)c1 (stereo partly shown) [Compound 14] |  | D (compounds with IC50 values between 701 nM and 110 nM are designated as D class compounds)
CC1(C)CCCC(N2C[C@@H]3[C@H](C2)[C@H]3C(=O)NCC(=O)Nc2cccc(C(F)(F)F)c2)C1 (stereo partly shown) [Compound 38] | 201 to 700 | 
O=C(CNC(=O)[C@H]1[C@@H]2CN([C@H]3CC[C@@H](C4Cc5ccccc5O4)CC3)C[C@@H]21)Nc1cccc(C(F)(F)F)c1 (stereo partly shown) [Compound 140] | 201 to 700 | 
CCC(CC)N1C[C@@H]2[C@H](C1)[C@H]2C(=O)NCC(=O)Nc1cccc(C(F)(F)F)c1 [Compound 13] | 51 to 200 | 
O=C(CNC(=O)[C@H]1[C@@H]2CN([C@H]3CC[C@@H](NC(=O)c4ccccc4)CC3)C[C@@H]21)Nc1cccc(C(F)(F)F)c1 [Compound 141] | < 50 | 
O=C(CNC(=O)[C@H]1[C@@H]2CN([C@H]3CC[C@@H](c4cnc(O)nc4O)CC3)C[C@@H]21)Nc1cccc(C(F)(F)F)c1 [Compound 134] | 51 to 200 | 
O=C(NCCc1cccc(C(F)(F)F)c1)C1[C@H]2CN(C3CCCC3)C[C@@H]12 (stereo partly shown) [Compound 46] | 201 to 700 | 
COC(=O)[C@H]1CC[C@@H](N2C[C@@H]3[C@H](C2)[C@H]3C(=O)NCC(=O)Nc2cccc(C(F)(F)F)c2)CC1 [Compound 57] | < 50 | 

Further lines, with some results ahead:

IC50 [nM] | SMILES | IC50 (nM)
201 to 700 | O=C([C@H]1[C@@H]2CN([C@H]3CC[C@@H](c4ccccc4)CC3)C[C@@H]21)N1CCN(c2cccc(C(F)(F)F)c2)CC1 [Compound 108] | 
201 to 700 | N#Cc1ccc(C2CCN(C(=O)[C@H]3[C@@H]4CN([C@H]5CC[C@@H](c6ccccc6)CC5)C[C@@H]43)C2)cc1 (stereo partly shown) [Compound 41] | 
< 50 | O=C(CNC(=O)[C@H]1[C@@H]2CN([C@H]3CC[C@@H](c4ccc(OCc5ccccc5)cc4)CC3)C[C@@H]21)Nc1cccc(C(F)(F)F)c1 [Compound 160] | 
201 to 700 | O=C([C@H]1[C@@H]2CN([C@H]3CC[C@@H](c4ccccc4)CC3)C[C@@H]21)N1CCc2ncc(C(F)(F)F)cc2C1 [Compound 61] | 
< 50 | O=C(CNC(=O)[C@H]1[C@@H]2CN([C@H]3CC[C@@H](c4ccc(=O)[nH]c4)CC3)C[C@@H]21)Nc1cccc(C(F)(F)F)c1 [Compound 117] | 
201 to 700 | Cc1[nH]c2c(C(F)(F)F)cccc2c1CCNC(=O)[C@H]1[C@@H]2CN([C@H]3CC[C@@H](c4ccccc4)CC3)C[C@@H]21 [Compound 125] | 
51 to 200 | O=C([C@H]1[C@@H]2CN([C@H]3CC[C@@H](c4ccccc4)CC3)C[C@@H]21)N1CC(Oc2ccc(Cl)c(Cl)c2)C1 [Compound 77] | 
201 to 700 | O=C(NC1CCc2ccc(F)cc2C1)[C@H]1[C@@H]2CN([C@H]3CC[C@@H](c4ccccc4)CC3)C[C@@H]21 (stereo partly shown) [Compound 36] | 
201 to 700 | O=C(NCCc1cc(C(F)(F)F)cc(C(F)(F)F)c1)[C@H]1[C@@H]2CN([C@H]3CC[C@@H](c4ccccc4)CC3)C[C@@H]21 [Compound 135] | 
